Results as given in ChEMBL document CHEMBL3045494, “Inhibitory effect and structureactivity relationship of some Biginelli-type pyrimidines against HSV-1” (Med Chem Res, 2013).
Calls of active or inactive are those of the source.

What was measured:
[1] = Selectivity index, ratio of CC25 for African green monkey Vero cells to IC25 for Herpes simplex virus 1 KOS; format: toxicity, cell-based; details: read-out: Selectivity Index
[2] = (§1) Cytotoxicity against Chlorocebus aethiops (African green monkey) Vero cells after 72 hr by XTT assay; format: cell-based; details: chlorocebus sabaeus, Vero cells
Vero = experiment: as §1; format: cell-based; details: chlorocebus sabaeus, vero, 72 h
[3] = Therapeutic index, ratio of CC50 for African green monkey Vero cells to IC50 for Herpes simplex virus 1 KOS; format: cell-based; details: read-out: Ratio CC50/IC50
Human alphaherpesvirus 1 = experiment: Antiviral activity against Human herpesvirus 1 strain KOS infected Vero cells after 72 hr by plaque reduction assay; format: functional, organism-based
[4] = Human alphaherpesvirus 1, KOS, Vero, 72 h
[5] = Human alphaherpesvirus 1, KOS, Vero, 72 h, read-out: IC50

CC1=C(C(=O)OCC(C)C)C(c2cccs2)NC(S)=N1 (stereo not given)
selectivity ratio [1]: 30.6 | CC50 at 72 h [2]: 87.5 µM | CC25 (Vero): 18.4 µM | selectivity ratio [3]: 48.6 | IC25 (Human alphaherpesvirus 1; [4]): 0.6 µM | IC50 (Human alphaherpesvirus 1; [5]): 1.8 µM

CC1=C(C(=O)Nc2ccccc2Cl)C(c2ccc(Br)cc2)NC(=O)N1 (stereo not given)
selectivity ratio [1]: 936 | CC50 at 72 h [2]: > 100 µM | CC25 (Vero): 84.3 µM | selectivity ratio [3]: > 3 | IC25 (Human alphaherpesvirus 1; [4]): 0.09 µM | IC50 (Human alphaherpesvirus 1; [5]): 32.7 µM

CCOC(=O)C1=C(C)N=C(S)NC1c1cccs1 (stereo not given)
selectivity ratio [1]: 6.2 | CC50 at 72 h [2]: 100 µM | CC25 (Vero): 87.3 µM | IC25 (Human alphaherpesvirus 1; [4]): 14 µM | IC50 (Human alphaherpesvirus 1; [5]): > 100 µM

CC1=C(C(=O)Nc2ccc(Cl)cc2)C(c2cccs2)NC(=O)N1 (stereo not given)
selectivity ratio [1]: 7.1 | CC50 at 72 h [2]: > 100 µM | CC25 (Vero): 83.2 µM | selectivity ratio [3]: > 1.6 | IC25 (Human alphaherpesvirus 1; [4]): 11.7 µM | IC50 (Human alphaherpesvirus 1; [5]): 59.7 µM

CC1=C(C(=O)Nc2ccccc2Cl)C(c2cnc(CS)n2NCc2ccccc2)NC(=O)N1 (stereo not given)
selectivity ratio [1]: < 1 | CC50 at 72 h [2]: > 100 µM | CC25 (Vero): > 100 µM | selectivity ratio [3]: < 1 | IC25 (Human alphaherpesvirus 1): inactive | IC50 (Human alphaherpesvirus 1; vero): Not Active

CCOC(=O)C1=C(C)NC(=O)NC1c1ccccc1 (stereo not given)
selectivity ratio [1]: > 1 | CC25 (Vero): Non-toxic | CC50 (Vero): Non-toxic | selectivity ratio [3]: 1 | IC25 (Human alphaherpesvirus 1; [4]): 133 µM | IC50 (Human alphaherpesvirus 1; vero): Not Active

CC1=C(C(=O)Oc2ccccc2)C(c2ccccc2)NC(=S)N1 (stereo not given)
selectivity ratio [1]: > 1.1 | CC25 (Vero): Non-toxic | CC50 (Vero): Non-toxic | selectivity ratio [3]: > 1 | IC25 (Human alphaherpesvirus 1; [4]): 93.2 µM | IC50 (Human alphaherpesvirus 1; [5]): > 100 µM

COC(=O)C1=C(C)NC(=S)NC1c1ccc(Br)cc1 (stereo not given)
selectivity ratio [1]: 0.8 | CC50 at 72 h [2]: 97.2 µM | CC25 (Vero): 69.1 µM | selectivity ratio [3]: 1.22 | IC25 (Human alphaherpesvirus 1; [4]): 67.7 µM | IC50 (Human alphaherpesvirus 1; [5]): 82.7 µM

CC1=C(C(=O)Nc2cccc(Cl)c2)C(c2cccs2)NC(=O)N1 (stereo not given)
selectivity ratio [1]: < 1 | CC50 at 72 h [2]: > 100 µM | CC25 (Vero): 87.9 µM | selectivity ratio [3]: < 1 | IC25 (Human alphaherpesvirus 1): inactive | IC50 (Human alphaherpesvirus 1; vero): Not Active

CCOC(=O)C1=C(C)NC(=O)NC1c1ccc(Br)cc1 (stereo not given)
CC25 (Vero): 67.5 µM

CC1=C(C(=O)Nc2ccc(Cl)cc2)C(c2cnc(CS)n2Nc2ccccc2)NC(=O)N1 (stereo not given)
selectivity ratio [1]: 1.4 | CC50 at 72 h [2]: > 100 µM | CC25 (Vero): 53.9 µM | selectivity ratio [3]: > 1 | IC25 (Human alphaherpesvirus 1; [4]): 37 µM | IC50 (Human alphaherpesvirus 1; [5]): > 100 µM

CC1=C(C(=O)Nc2ccc(Br)cc2)C(c2ccccc2)NC(=O)N1 (stereo not given)
selectivity ratio [1]: 356 | CC50 at 72 h [2]: > 100 µM | CC25 (Vero): 71.3 µM | selectivity ratio [3]: > 2.3 | IC25 (Human alphaherpesvirus 1; [4]): 0.2 µM | IC50 (Human alphaherpesvirus 1; [5]): 43.3 µM

CCCC1NC(=O)NC(C)=C1C(=O)OCC (stereo not given)
selectivity ratio [1]: 1 | CC25 (Vero): Non-toxic | CC50 (Vero): Non-toxic | selectivity ratio [3]: 1 | IC25 (Human alphaherpesvirus 1): inactive | IC50 (Human alphaherpesvirus 1; vero): Not Active

CC1=C(C(=O)Nc2cccnc2)C(c2cccs2)NC(=O)N1 (stereo not given)
selectivity ratio [1]: < 1 | CC50 at 72 h [2]: > 100 µM | CC25 (Vero): > 100 µM | selectivity ratio [3]: < 1 | IC25 (Human alphaherpesvirus 1): inactive | IC50 (Human alphaherpesvirus 1; vero): Not Active

CC1=C(C(=O)Nc2ccccc2Cl)C(c2ccc(C)cc2)NC(=O)N1 (stereo not given)
selectivity ratio [1]: > 1250 | CC50 at 72 h [2]: > 100 µM | CC25 (Vero): > 100 µM | selectivity ratio [3]: > 10 | IC25 (Human alphaherpesvirus 1; [4]): 0.08 µM | IC50 (Human alphaherpesvirus 1; [5]): 10.5 µM

CCOC(=O)C1=C(C)NC(=O)NC1c1cnc(CS)n1NCc1ccccc1 (stereo not given)
selectivity ratio [1]: 1 | CC25 (Vero): Non-toxic | CC50 (Vero): Non-toxic | selectivity ratio [3]: 1 | IC25 (Human alphaherpesvirus 1): inactive | IC50 (Human alphaherpesvirus 1; vero): Not Active

CC1=C(C(=O)OC(C)(C)C)C(c2cccs2)NC(=O)N1 (stereo not given)
selectivity ratio [1]: < 1 | CC50 at 72 h [2]: > 100 µM | CC25 (Vero): 76.7 µM | selectivity ratio [3]: < 1 | IC25 (Human alphaherpesvirus 1): inactive | IC50 (Human alphaherpesvirus 1; vero): Not Active

CC1=C(C(=O)Nc2ccccc2Cl)C(c2ccccc2Cl)NC(=O)N1 (stereo not given)
selectivity ratio [1]: > 1000 | CC25 (Vero): Non-toxic | CC50 (Vero): Non-toxic | selectivity ratio [3]: > 1.4 | IC25 (Human alphaherpesvirus 1; [4]): 0.1 µM | IC50 (Human alphaherpesvirus 1; [5]): 67.4 µM

CC1=C(C(=O)Oc2ccccc2)C(c2ccccc2)NC(=O)N1 (stereo not given)
selectivity ratio [1]: 9.4 | CC50 at 72 h [2]: > 100 µM | CC25 (Vero): 98 µM | selectivity ratio [3]: > 1.1 | IC25 (Human alphaherpesvirus 1; [4]): 10.4 µM | IC50 (Human alphaherpesvirus 1; [5]): 89.7 µM

CC1=C(C(=O)Nc2ccccc2Cl)C(c2ccccc2Br)NC(=O)N1 (stereo not given)
selectivity ratio [1]: 4.2 | CC50 at 72 h [2]: > 100 µM | CC25 (Vero): 58.8 µM | selectivity ratio [3]: > 1.6 | IC25 (Human alphaherpesvirus 1; [4]): 13.9 µM | IC50 (Human alphaherpesvirus 1; [5]): 59.8 µM

CCCOC(=O)C1=C(C)NC(=S)NC1c1cccs1 (stereo not given)
selectivity ratio [1]: 0.3 | CC50 at 72 h [2]: 23.6 µM | CC25 (Vero): 0.5 µM | selectivity ratio [3]: 2.9 | IC25 (Human alphaherpesvirus 1; [4]): 1.5 µM | IC50 (Human alphaherpesvirus 1; [5]): 7.9 µM

COC(=O)C1=C(C)NC(=S)NC1c1cccs1 (stereo not given)
selectivity ratio [1]: > 1.1 | CC25 (Vero): Non-toxic | CC50 (Vero): Non-toxic | selectivity ratio [3]: > 1 | IC25 (Human alphaherpesvirus 1; [4]): 92.5 µM | IC50 (Human alphaherpesvirus 1; [5]): > 100 µM

CC1=C(C(=O)Nc2ccccc2Cl)C(c2cccc(Br)c2)NC(=O)N1 (stereo not given)
selectivity ratio [1]: 34.1 | CC50 at 72 h [2]: > 100 µM | CC25 (Vero): 54.7 µM | selectivity ratio [3]: > 1 | IC25 (Human alphaherpesvirus 1; [4]): 1.6 µM | IC50 (Human alphaherpesvirus 1; [5]): 95.4 µM

CC1=C(C(=O)Nc2ccccc2Cl)C(c2cnc(CS)n2Nc2ccccc2)NC(=O)N1 (stereo not given)
selectivity ratio [1]: < 1 | CC50 at 72 h [2]: > 100 µM | CC25 (Vero): 97.7 µM | selectivity ratio [3]: < 1 | IC25 (Human alphaherpesvirus 1): inactive | IC50 (Human alphaherpesvirus 1; vero): Not Active

CC1=C(C(=O)Nc2ccccc2Cl)C(c2cccc([N+](=O)[O-])c2)NC(=O)N1 (stereo not given)
selectivity ratio [1]: > 1000 | CC25 (Vero): Non-toxic | CC50 (Vero): Non-toxic | selectivity ratio [3]: > 2.1 | IC25 (Human alphaherpesvirus 1; [4]): 0.1 µM | IC50 (Human alphaherpesvirus 1; [5]): 46.1 µM

CC1=C(C(=O)Nc2ccccc2Cl)C(c2ccc(Cl)cc2)NC(=O)N1 (stereo not given)
selectivity ratio [1]: > 625 | CC25 (Vero): Non-toxic | CC50 (Vero): Non-toxic | selectivity ratio [3]: > 6.6 | IC25 (Human alphaherpesvirus 1; [4]): 0.16 µM | IC50 (Human alphaherpesvirus 1; [5]): 13 µM

CCOC(=O)C1=C(C)N(C)C(=O)NC1c1ccc(F)cc1 (stereo not given)
selectivity ratio [1]: > 1 | CC25 (Vero): Non-toxic | CC50 (Vero): Non-toxic | selectivity ratio [3]: 1 | IC25 (Human alphaherpesvirus 1; [4]): 99 µM | IC50 (Human alphaherpesvirus 1; vero): Not Active

CC1=C(C(=O)Nc2ccccc2Cl)C(c2ccc([N+](=O)[O-])cc2)NC(=O)N1 (stereo not given)
selectivity ratio [1]: > 167 | CC25 (Vero): Non-toxic | CC50 (Vero): Non-toxic | selectivity ratio [3]: > 1.2 | IC25 (Human alphaherpesvirus 1; [4]): 0.6 µM | IC50 (Human alphaherpesvirus 1; [5]): 81.9 µM

COC(=O)C1=C(C)NC(=O)NC1c1ccc(F)cc1 (stereo not given)
selectivity ratio [1]: 1 | CC25 (Vero): Non-toxic | CC50 (Vero): Non-toxic | selectivity ratio [3]: 1 | IC25 (Human alphaherpesvirus 1): inactive | IC50 (Human alphaherpesvirus 1; vero): Not Active

CCOC(=O)C1=C(C)NC(=O)NC1c1ccc(F)cc1 (stereo not given)
selectivity ratio [1]: 1 | CC25 (Vero): Non-toxic | CC50 (Vero): Non-toxic | selectivity ratio [3]: 1 | IC25 (Human alphaherpesvirus 1): inactive | IC50 (Human alphaherpesvirus 1; vero): Not Active

COC(=O)C1=C(C)N(C)C(=O)NC1c1ccc(F)cc1 (stereo not given)
selectivity ratio [1]: 1 | CC25 (Vero): Non-toxic | CC50 (Vero): Non-toxic | selectivity ratio [3]: 1 | IC25 (Human alphaherpesvirus 1): inactive | IC50 (Human alphaherpesvirus 1; vero): Not Active
